Data as given in patent US9000175B2, “Bicyclic GPR119 modulators” (Lupin Limited, priority 2010, dated 2015).
Values joined by “and” are separate entries in the source; they are usually repeats but may differ in a detail not shown here. Identical values can stand only once.

molecular target: T1, human GPR119 (Homo sapiens, UniProt Q8TDV5); assay: Cyclic AMP assay in stable cell line; assay type: cell-based; settings: CHO-K1 cells stably transfected with human GPR119; cAMP levels (FRET, cAMP femto kit); 1 h at 37° C; read-out: EC50 Range
T1 construct: expressed in transfected cells
T1 sequence (Q8TDV5 1-335): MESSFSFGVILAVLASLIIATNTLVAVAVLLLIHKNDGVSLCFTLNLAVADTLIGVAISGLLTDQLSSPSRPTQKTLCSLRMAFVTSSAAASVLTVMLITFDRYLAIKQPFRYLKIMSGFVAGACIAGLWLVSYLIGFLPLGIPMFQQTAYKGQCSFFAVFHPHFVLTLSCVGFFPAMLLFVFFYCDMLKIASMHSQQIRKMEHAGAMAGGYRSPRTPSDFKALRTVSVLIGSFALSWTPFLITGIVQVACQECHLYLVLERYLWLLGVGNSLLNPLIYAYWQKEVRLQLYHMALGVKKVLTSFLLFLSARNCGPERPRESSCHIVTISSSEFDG
Description: Cyclic AMP Assay in Stable Cell Line:
Chinese Hamster Ovary (CHO-K1) cells were stably transfected with human GPR119 and were maintained in Ham's F-12 complete medium containing 10% heat inactivated FBS (Sigma, UK). The cells were maintained under a selection pressure with 500 μg/ml G418 (GENETICIN). Stable clones were analyzed for functional cAMP response to OEA (oleoylethanolamide).
To estimate activation of GPR119 and induction of cAMP levels by GPR119 agonists, cells were serum starvation for 18-24 h, trypsinized and seeded in 96 well plates at a, density of 7500 cells/well. The cells were then treated with test compounds diluted in serum free Ham's F12 for 1 h at 37° C. The cAMP levels were measured by using the cAMP femto kit (CisBio) by following the manufacturer's instructions. Following treatment with a test compound, the cells were lysed and cAMP levels were estimated by adding D2-labelled cAMP and europium-cryptate conjugated anti-cAMP antibody. Close proximity of D2 and cryptate results in FRET and the subsequent fluorescence that is measured at 665 and 620 nm. The FRET response is calculated as the ratio of fluorescence at 665 to fluorescence at 620 nm. The unlabelled cAMP produced as a result of GPR119 activation/agonism competes with the D2-cAMP leading to a decrease in the FRET signal. Thus the FRET signal is inversely proportional to the amount of cAMP produced by the treated cells. In a separate set of wells, known concentrations of cAMP were added in order to get a standard linear curve for extrapolation of the cAMP values in the unknown/test samples. Fluorescence was measured on BMG Labtech PHERAstar machine.
The concentration of compound required to stimulate a half-maximal response (EC50) was determined using the GraphPad Prism software.
The compounds prepared were tested using the above assay procedure and the results obtained are given below.

| EC50 | Compound |
| --- | --- |
| 0.05 to 0.25 µM | CCc1cnc(N2CCC(Nc3ccc(-n4ccc5cc(S(C)(=O)=O)ccc54)nc3)CC2)nc1 [Example-119, N-(1-(5-Ethylpyrimidin-2-yl)piperidin-4-yl)-6-(5-(methylsulfonyl)-1H-indol-1-yl)pyridin-3-amine] |
| < 0.05 µM | CN(C)C(=O)c1ccc2c(ccn2-c2ccc(OC3CCN(C(=O)OC(C)(C)C)CC3)cn2)c1 [Example-39, tert-Butyl-4-((6-(5-(dimethylcarbamoyl)-1H-indol-1-yl)pyridin-3-yl)oxy) piperidine-1-carboxylate] |
| < 0.05 µM | CCOC(=O)N1CCC(Oc2ccc(-n3ccc4cc(-n5cnnn5)ccc43)nc2)CC1 [Example-187, Ethyl-4-((6-(5-(1H-tetrazol-1-yl)-1H-indol-1-yl)pyridin-3-yl)oxy)-piperidine-1-carboxylate] |
| 0.05 to 0.25 µM | CCc1noc(N2CCC(Oc3ccc(-n4ccc5cc(C(=O)N(C)C)ccc54)nc3)CC2)n1 [Example-147, 1-(5-((1-(3-Ethyl-1,2,4-oxadiazol-5-yl)piperidin-4-yl)oxy)pyridin-2-yl)-N,N-dimethyl-1H-indole-5-carboxamide] |
| < 0.05 µM | CCc1cnc(N2CCC(Oc3ccc(-n4ccc5cc(C(=O)NC6CC6)ccc54)nc3)CC2)nc1 [Example-54, N-Cyclopropyl-1-(5-((1-(5-ethylpyrimidin-2-yl)piperidin-4-yl)oxy)pyridin-2-yl)-1H-indole-5-carboxamide] |
| 0.25 to 1 µM | CCOC(=O)N1CCC(OCc2ccc(-n3ccc4cc(S(C)(=O)=O)ccc43)nc2)CC1 [Example-107, Ethyl 4-((6-(5-(methylsulfonyl)-1H-indol-1-yl)pyridin-3-yl)methoxy) piperidine-1-carboxylate] |
| < 0.05 µM | CCc1cnc(N2CC3COCC(C2)C3Oc2ccc(-n3ccc4cc(S(C)(=O)=O)ccc43)nc2)nc1 (stereo not drawn) [Example-51, anti 7-(5-Ethylpyrimidin-2-yl)-9-((6-(5-(methylsulfonyl)-1H-indol-1-yl)pyridin-3-yl)oxy)-3-oxa-7-azabicyclo[3.3.1]nonane] |
| < 0.05 µM | CC(C)(C)OC(=O)N1CCC(COc2ccc(-n3ccc4cc(S(C)(=O)=O)ccc43)nc2)CC1 [Example-5, tert-Butyl-4-(((6-(5-(methylsulfonyl)-1H-indol-1-yl)pyridin-3-yl)oxy)methyl)piperidine-1-carboxylate] |
| < 0.05 µM | CC(C)NC(=O)c1ccc2c(c1)CCN2c1ccc(OC2CCN(C(=O)OC(C)(C)C)CC2)cn1 [Example-136, tert-Butyl-4-((6-(5-(isopropylcarbamoyl)indolin-1-yl)pyridin-3-yl)-oxy) piperidine-1-carboxylate] |
| 0.05 to 0.25 µM | CCS(=O)(=O)c1ccc2c(ccn2-c2ccc(OC3CCN(CC(C)(C)O)CC3)cn2)c1 [Example-13, 1-(4-((6-(5-(Ethylsulfonyl)-1H-indol-1-yl)pyridin-3-yl)oxy)piperidin-1-yl)-2-methylpropan-2-ol] |
| < 0.05 µM and 0.05 to 0.25 µM | CC(C)OC(=O)N1CCC(COc2ccc(-n3ccc4cc(NC(=O)C(C)C)ccc43)nc2)CC1 [Example-126, Isopropyl 4-(((6-(5-isobutyramido-1H-indol-1-yl)pyridin-3-yl)oxy)methyl)piperidine-1-carboxylate] |
| 0.25 to 1 µM | CCc1cnc(N2CCC(Oc3ccc(-n4ccc5cc(-c6nc(C(C)C)no6)ccc54)nc3)CC2)nc1 [Example-100, 5-(1-(5-((1-(5-Ethylpyrimidin-2-yl)piperidin-4-yl)oxy)pyridin-2-yl)-1H-indol-5-yl)-3-isopropyl-1,2,4-oxadiazole] |
| < 0.05 µM | CCc1cnc(N2CCC(Oc3ccc(-n4ccc5cc(C(=O)NCCO)ccc54)nc3)CC2)nc1 [Example-77, 1-(5-((1-(5-Ethylpyrimidin-2-yl)piperidin-4-yl)oxy)pyridin-2-yl)-N-(2-hydroxyethyl)-1H-indole-5-carboxamide] |
| 0.25 to 1 µM | CC(C)c1noc(-c2ccc3c(ccn3-c3ccc(OC4CCN(C(=O)OC(C)(C)C)CC4)cn3)c2)n1 [Example-99, tert-Butyl-4-((6-(5-(3-isopropyl-1,2,4-oxadiazol-5-yl)-1H-indol-1-yl)pyridin-3-yl)oxy)piperidine-1-carboxylate] |
